Paper PMC13308190, “Endothelial progenitor cell susceptibility to DNA damaging and DDR-modulating compounds determines endothelial differentiation accuracy” (Stem Cell Research & Therapy, 2026)

Experiments:
Format in all cases: cell-based, mouse
[1] = test system: mESC; test: RT-qPCR mRNA expression; conditions: for Cdkn1a mRNA / Cdkn2a mRNA / Glb1 mRNA / Il6 mRNA / Il8 mRNA / Tp53 mRNA: Fig 7A
Experimental: (§1) Total RNA was purified using the RNeasy Mini Kit (Qiagen, Hilden, Germany). Reverse transcriptase (RT) reaction was performed with the HighCapacity cDNA Reverse Transcription Kit (Applied Biosystems, Darmstadt, Germany) using 900–2000 ng of RNA. Quantitative RT-qPCR analysis was performed using following conditions: (1) 95 °C–10 min; (2) 45 amplification cycles with 95 °C–15 s, 55 °C–15 s, and 72 °C–17 s; (3) 95 °C–1 min, 55 °C–1 min, 65 °C–5 s. If not stated otherwise, analyses were performed in technical triplicates using pooled samples from two independent experiments (each performed with biological duplicates) by use of a CFX96 cycler (BioRad) and the SensiMix SYBR Kit (Bioline, London, UK). The primers used for mRNA expression analyses are listed in Supplementary Table 1. To ensure the specificity of the amplification product, melting curves were recorded at the end of the run. mRNA expression levels were normalized to β-Actin and Gapdh. Relative mRNA expression in mESC or corresponding untreated controls was set to 1.0. Only changes in gene expression of ≤ 0.5- and ≥ 2-fold were considered as biologically relevant. Fold-changes in gene expression are summarized in Supplementary Table 2.

[2] = test system: EC d6 (endothelial-like cells); test: RT-qPCR mRNA expression; conditions: for Cdkn1a mRNA / Cdkn2a mRNA / Glb1 mRNA / Il6 mRNA / Il8 mRNA / Tp53 mRNA: Fig 7C
Experimental: as §1, with “relevant.” for “relevant. Fold-changes in gene expression are summarized in Supplementary Table 2.”

[3] = test system: EC d4 (endothelial progenitor cells); test: Western blot protein expression (densitometry); conditions: EC d4 48 h; for CHK1 protein / RAD51 protein / gH2AX protein / p-CHK2 protein / p-KAP1 protein / p-RPA32 protein / p-p53 protein: Fig 5D
Summary of the method: (§2)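 Whole-cell RIPA extracts (probe sonication) quantified by DC assay; 20 µg protein resolved by SDS-PAGE, blotted to nitrocellulose. Blocked 1 h RT in 5% milk or BSA/TBST; primary antibodies 1:500–5000 overnight 4 °C, peroxidase secondary 1:2000 2 h RT. Chemiluminescent bands imaged, levels by densitometry.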

[4] = test system: EC d6 (endothelial-like cells); test: Western blot protein expression (densitometry); conditions: EC d6 24 h; for CHK1 protein / RAD51 protein / gH2AX protein / p-CHK2 protein / p-KAP1 protein / p-RPA32 protein / p-p53 protein: Fig 5D
Summary of the method: as §2

[5] = mESC + 10 µM 24 h + 24 h post incubation
[6] = mESC + 20 µM 24 h + 24 h post incubation
[7] = EC d6 + 10 µM 24 h + 24 h post incubation
[8] = EC d6 + 20 µM 24 h + 24 h post incubation
[9] = concentration 1 (Dox 1/B02 1/EST 1)
[10] = concentration 2 (Dox 2/B02 2/EST 2)

Q: For `O=c1c2ccccc2nc(/C=C/c2cccnc2)n1Cc1ccccc1` [B02], which “Cdkn1a mRNA” value [1, 5] is on record?
A: Its value is 0.89 Fold of untreated control.

Q: And the “Cdkn2a mRNA” value [1, 5]?
A: The value was 0.97 Fold of untreated control.

Q: What about the “Glb1 mRNA” value [1, 5] of the same molecule?
A: The value was 1.06 Fold of untreated control.

Q: And the “Il6 mRNA” value [1, 5]?
A: Its value is 0.98 Fold of untreated control.

Q: And the “Il8 mRNA” value [1, 5]?
A: Its value is 0.76 Fold of untreated control.

Q: And the “Tp53 mRNA” value [1, 5]?
A: Its value is 1.09 Fold of untreated control.

Q: And the “Cdkn1a mRNA” value [1, 6]?
A: The value was 0.94 Fold of untreated control.

Q: And the “Cdkn2a mRNA” value [1, 6]?
A: Its value is 0.89 Fold of untreated control.

Q: And the “Glb1 mRNA” value [1, 6]?
A: The value was 1.06 Fold of untreated control.

Q: And the “Il6 mRNA” value [1, 6]?
A: Its value is 1.35 Fold of untreated control.

Q: What about the “Il8 mRNA” value [1, 6] of the same molecule?
A: The value was 0.93 Fold of untreated control.

Q: And the “Tp53 mRNA” value [1, 6]?
A: Its value is 0.98 Fold of untreated control.

Q: What about the “Brca1 mRNA” value ([1]; mESC + 20 µM 24 h, Fig 5C) of the same molecule?
A: The value was 0.95 Fold of mESC.

Q: What about the “Chk1 mRNA” value ([1]; mESC + 20 µM 24 h, Fig 5C) of the same molecule?
A: The value was 1.33 Fold of mESC.

Q: And the “Rad51 mRNA” value ([1]; mESC + 20 µM 24 h, Fig 5C)?
A: The value was 0.90 Fold of mESC.

Q: And the “Pgc1a mRNA” value ([1]; mESC + 20 µM 24 h, Fig 6D)?
A: Its value is 2.40 Fold of untreated control.

Q: And the “Cdkn1a mRNA” value [2, 7]?
A: Its value is 1.67 Fold of untreated control.

Q: What about the “Cdkn2a mRNA” value [2, 7] of the same molecule?
A: Its value is 0.64 Fold of untreated control.

Q: What about the “Glb1 mRNA” value [2, 7] of the same molecule?
A: Its value is 0.88 Fold of untreated control.

Q: And the “Il6 mRNA” value [2, 7]?
A: The value was 0.85 Fold of untreated control.

Q: What about the “Il8 mRNA” value [2, 7] of the same molecule?
A: The value was 0.52 Fold of untreated control.

Q: And the “Tp53 mRNA” value [2, 7]?
A: The value was 0.97 Fold of untreated control.

Q: And the “Cdkn1a mRNA” value [2, 8]?
A: Its value is 2.28 Fold of untreated control.

Q: And the “Cdkn2a mRNA” value [2, 8]?
A: The value was 1.15 Fold of untreated control.

Q: And the “Glb1 mRNA” value [2, 8]?
A: The value was 1.64 Fold of untreated control.

Q: And the “Il6 mRNA” value [2, 8]?
A: The value was 1.79 Fold of untreated control.

Q: What about the “Il8 mRNA” value [2, 8] of the same molecule?
A: The value was 0.32 Fold of untreated control.

Q: And the “Tp53 mRNA” value [2, 8]?
A: The value was 1.27 Fold of untreated control.

Q: What about the “Brca1 mRNA” value ([2]; EC d6 + 20 µM 24 h, Fig 5C) of the same molecule?
A: The value was 0.51 Fold of mESC.

Q: And the “Chk1 mRNA” value ([2]; EC d6 + 20 µM 24 h, Fig 5C)?
A: The value was 1.27 Fold of mESC.

Q: And the “Rad51 mRNA” value ([2]; EC d6 + 20 µM 24 h, Fig 5C)?
A: The value was 0.34 Fold of mESC.

Q: What about the “Pgc1a mRNA” value ([2]; EC d6 + 20 µM 24 h, Fig 6D) of the same molecule?
A: The value was 0.27 Fold of untreated control.

Q: What about the “Cldn5 mRNA” value ([2]; EC d6 + 20 µM 24 h, Fig 8C) of the same molecule?
A: The value was 4.85 Fold of EC d4 or d6.

Q: And the “Ocln mRNA” value ([2]; EC d6 + 20 µM 24 h, Fig 8C)?
A: Its value is 1.87 Fold of EC d4 or d6.

Q: What about the “Tjp1 mRNA” value ([2]; EC d6 + 20 µM 24 h, Fig 8C) of the same molecule?
A: The value was 1.07 Fold of EC d4 or d6.

Q: What about the H3ac protein ([3]; Fig 1D) of the same molecule?
A: Its H3ac protein is 0.0 Fold of mESC.

Q: And the H4ac protein ([3]; Fig 1D)?
A: Its H4ac protein is 0.0 Fold of mESC.

Q: What about the “aTubac (acetylated α-Tubulin) protein” value ([3]; Fig 1D) of the same molecule?
A: The value was 0.6 Fold of mESC.

Q: And the CHK1 protein [3, 9]?
A: The CHK1 protein was 0.4 Fold of mESC.

Q: And the RAD51 protein [3, 9]?
A: The RAD51 protein was 0.7 Fold of mESC.

Q: What about the gH2AX protein [3, 9] of the same molecule?
A: The gH2AX protein was 1.8 Fold of mESC.

Q: What about the p-CHK2 protein [3, 9] of the same molecule?
A: The p-CHK2 protein was 0.2 Fold of mESC.

Q: What about the p-KAP1 protein [3, 9] of the same molecule?
A: The p-KAP1 protein was 0.0 Fold of mESC.

Q: And the p-RPA32 protein [3, 9]?
A: The p-RPA32 protein was 0.3 Fold of mESC.

Q: And the p-p53 protein [3, 9]?
A: Its p-p53 protein is 0.6 Fold of mESC.

Q: And the CHK1 protein [3, 10]?
A: Its CHK1 protein is 0.2 Fold of mESC.

Q: And the RAD51 protein [3, 10]?
A: Its RAD51 protein is 0.3 Fold of mESC.

Q: What about the gH2AX protein [3, 10] of the same molecule?
A: The gH2AX protein was 0.0 Fold of mESC.

Q: And the p-CHK2 protein [3, 10]?
A: Its p-CHK2 protein is < 0.1 Fold of mESC.

Q: And the p-KAP1 protein [3, 10]?
A: The p-KAP1 protein was 0.0 Fold of mESC.

Q: And the p-RPA32 protein [3, 10]?
A: Its p-RPA32 protein is 0.4 Fold of mESC.

Q: And the p-p53 protein [3, 10]?
A: The p-p53 protein was 0.3 Fold of mESC.

Q: What about the AMPKa protein ([3]; Fig 6E) of the same molecule?
A: The AMPKa protein was 0.1 Fold of mESC.

Q: What about the GSK3b protein ([3]; Fig 6E) of the same molecule?
A: The GSK3b protein was 1.9 Fold of mESC.

Q: And the p-p70SK protein ([3]; Fig 6E)?
A: The p-p70SK protein was 1.4 Fold of mESC.

Q: What about the H3ac protein ([4]; Fig 1D) of the same molecule?
A: The H3ac protein was 0.1 Fold of mESC.

Q: What about the H4ac protein ([4]; Fig 1D) of the same molecule?
A: Its H4ac protein is 0.0 Fold of mESC.

Q: And the “aTubac (acetylated α-Tubulin) protein” value ([4]; Fig 1D)?
A: Its value is 0.3 Fold of mESC.

Q: What about the CHK1 protein [4, 9] of the same molecule?
A: Its CHK1 protein is 0.7 Fold of mESC.

Q: What about the RAD51 protein [4, 9] of the same molecule?
A: The RAD51 protein was 0.7 Fold of mESC.

Q: And the gH2AX protein [4, 9]?
A: The gH2AX protein was 1.2 Fold of mESC.

Q: And the p-CHK2 protein [4, 9]?
A: The p-CHK2 protein was 0.1 Fold of mESC.

Q: What about the p-KAP1 protein [4, 9] of the same molecule?
A: The p-KAP1 protein was 0.0 Fold of mESC.

Q: What about the p-RPA32 protein [4, 9] of the same molecule?
A: Its p-RPA32 protein is 0.1 Fold of mESC.

Q: And the p-p53 protein [4, 9]?
A: Its p-p53 protein is 0.4 Fold of mESC.

Q: What about the CHK1 protein [4, 10] of the same molecule?
A: The CHK1 protein was 0.1 Fold of mESC.

Q: What about the RAD51 protein [4, 10] of the same molecule?
A: The RAD51 protein was < 0.1 Fold of mESC.

Q: What about the gH2AX protein [4, 10] of the same molecule?
A: Its gH2AX protein is 0.1 Fold of mESC.

Q: And the p-CHK2 protein [4, 10]?
A: Its p-CHK2 protein is 0.0 Fold of mESC.

Q: And the p-KAP1 protein [4, 10]?
A: Its p-KAP1 protein is 0.0 Fold of mESC.

Q: What about the p-RPA32 protein [4, 10] of the same molecule?
A: The p-RPA32 protein was < 0.1 Fold of mESC.

Q: And the p-p53 protein [4, 10]?
A: The p-p53 protein was 0.2 Fold of mESC.

Q: And the AMPKa protein ([4]; Fig 6E)?
A: Its AMPKa protein is 0.1 Fold of mESC.

Q: And the GSK3b protein ([4]; Fig 6E)?
A: The GSK3b protein was 1.8 Fold of mESC.

Q: And the p-p70SK protein ([4]; Fig 6E)?
A: The p-p70SK protein was 1.1 Fold of mESC.
